# Biological target: T1, CFTR (Homo sapiens, UniProt P13569)
# T1 construct: expressed in transfected cells
# Assay: IonWorks Quattro assay (CFTR Inhibitor Assay), whole-cell planar patch clamp
# Type: cell-based
# Settings: inward current (−100 mV); CHO cells stably expressing WT-CFTR; CFTR activated by 10 μM forskolin; test compound incubated 10 min
# Text: CFTR activity can be quantified by electrophysiology methods, using the whole-cell configuration of the patch clamp technique (Hamill O, Marty A, Neher E, Sakmann B and Sigworth F. ‘Improved patch-clamp techniques for high resolution current recording from cells and cell-free membrane patches.’ Pflugers Archive 1981 391: 85-100). This assay directly measures the currents associated with chloride flow through CFTR channels whilst either maintaining or adjusting the transmembrane voltage. This assay can use either single glass micropipettes or parallel planar arrays to measure CFTR activity from native or recombinant cell systems. Currents measured using parallel planar arrays can be quantified using an appropriately equipped instrument such as the IonWorks Quattro (Molecular Devices Corporation, Sunnyvale, Calif.). The Quattro system can measure CFTR currents from either a single cell per recording well (HT configuration) or alternatively from a population of 64 cells per well (Population Patch Clamp PPC) (Finkel A, Wittel A, Yang N, Handran S, Hughes J, Costantin J. ‘Population patch clamp improves data consistency and success rates in the measurement of ionic currents.’ J Biomol Screen. 2006 August; 11 (5):488-96).
# Chinese hamster ovary (CHO) cells stably expressing WT-CFTR channels were used for the IonWorks Quattro experiments. Cells were maintained at 37° C. in 5% v/v CO2 at 100% humidity in MEM alpha medium supplemented with 10% (v/v) FCS, 100 U/mL Penicillin/Streptomycin, and 100 μg/L methotrexate. For experiments, cells were grown in 225 cm^2 tissue culture flasks until almost confluent. Cells were removed from the flask using trypsin-EDTA and resuspended in extracellular recording solution for immediate experimentation.
# Cells, at a density of 1.5-2 million per mL, were placed on the Quattro system, added to the planar patch plate and seals allowed to establish for 5-10 mins. After assessing seal resistances (typically >50 MΩ), whole-cell access was obtained by perforation with 100 μg/mL amphotericin B. Baseline currents were measured by a pre-compound scan obtained by application of a voltage ramp from −100 to +100 mV. CFTR was activated by the addition of 10 μM forskolin to each of the 384 wells of the patch plate. After 5 min incubation the post-compound 1 currents were measured, again by application of a voltage ramp from −100 to +100 mV. Test compounds, diluted from 10 mM stocks in DMSO in extracellular solution were then added to the patch plate and were incubated for a further 10 min. The post-compound 2 currents were measured by the application of the same voltage ramp from −100 to +100 mV. The inhibition of CFTR was determined from the difference in current between the forskolin addition (post-compound 1) and the test compound (post-compound 2). This was determined at both −100 mV and +100 mV which represents the inward and outward current respectively.
# Extracellular solution (ECS): 145 mM NaCl, 4 mM CsCl, 5 mM D-glucose, 10 mM TES, 1 mM CaCl2, 1 mM MgCl2, pH 7.4 NaOH
# Intracellular solution (ICS): 113 mM L-Aspartic acid, 113 mM CsOH, 27 mM CsCl, 1 mM NaCl, 1 mM MgCl2, 1 mM EGTA, 10 mM TES. pH 7.2 with CsOH. Filter sterilized before use.
# T1 sequence (P13569 whole entry): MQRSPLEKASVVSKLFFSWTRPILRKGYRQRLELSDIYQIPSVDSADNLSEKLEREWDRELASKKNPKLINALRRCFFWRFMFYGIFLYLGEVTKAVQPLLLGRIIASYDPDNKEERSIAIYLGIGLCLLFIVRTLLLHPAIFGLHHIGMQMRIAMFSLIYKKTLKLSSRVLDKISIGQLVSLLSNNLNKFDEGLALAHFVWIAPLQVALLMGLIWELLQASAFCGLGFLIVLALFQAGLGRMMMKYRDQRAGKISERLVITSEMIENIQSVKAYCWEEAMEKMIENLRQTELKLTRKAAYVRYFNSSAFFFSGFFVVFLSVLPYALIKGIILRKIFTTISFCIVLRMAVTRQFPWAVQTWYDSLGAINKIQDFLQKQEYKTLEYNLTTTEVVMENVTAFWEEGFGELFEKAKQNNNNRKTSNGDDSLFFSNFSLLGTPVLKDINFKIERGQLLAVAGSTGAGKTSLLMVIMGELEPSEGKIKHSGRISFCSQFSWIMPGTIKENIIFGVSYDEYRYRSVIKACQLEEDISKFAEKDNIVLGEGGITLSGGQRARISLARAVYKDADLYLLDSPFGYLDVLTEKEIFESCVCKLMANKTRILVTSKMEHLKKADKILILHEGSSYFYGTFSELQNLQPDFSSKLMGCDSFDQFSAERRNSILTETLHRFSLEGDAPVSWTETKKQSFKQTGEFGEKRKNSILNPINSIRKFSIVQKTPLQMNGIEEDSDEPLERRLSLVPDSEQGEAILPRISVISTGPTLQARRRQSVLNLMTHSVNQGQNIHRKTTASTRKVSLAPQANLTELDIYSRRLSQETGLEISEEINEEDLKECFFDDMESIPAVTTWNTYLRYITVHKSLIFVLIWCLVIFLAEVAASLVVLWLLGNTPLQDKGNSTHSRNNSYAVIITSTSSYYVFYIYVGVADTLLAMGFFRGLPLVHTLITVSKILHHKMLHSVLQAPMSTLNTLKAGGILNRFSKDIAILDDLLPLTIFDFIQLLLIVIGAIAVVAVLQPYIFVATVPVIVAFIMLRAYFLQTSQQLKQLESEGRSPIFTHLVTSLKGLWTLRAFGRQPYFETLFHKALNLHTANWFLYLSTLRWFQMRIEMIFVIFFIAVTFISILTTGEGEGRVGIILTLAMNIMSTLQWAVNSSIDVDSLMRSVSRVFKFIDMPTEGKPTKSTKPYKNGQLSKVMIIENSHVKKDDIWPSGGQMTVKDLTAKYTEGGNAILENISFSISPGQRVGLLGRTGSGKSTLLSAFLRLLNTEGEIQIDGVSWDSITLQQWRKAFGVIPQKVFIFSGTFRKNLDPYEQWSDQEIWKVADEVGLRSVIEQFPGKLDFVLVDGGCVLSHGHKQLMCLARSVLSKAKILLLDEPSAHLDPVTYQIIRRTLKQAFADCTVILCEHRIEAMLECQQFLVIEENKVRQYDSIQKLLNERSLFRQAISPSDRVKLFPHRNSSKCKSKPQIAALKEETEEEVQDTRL
row,SMILES,IC50 [µM]
1,"Cc1ccc([C@@H]2C[C@H](C)Cn3c(-c4cccc(F)c4)c4c(=O)n(C)c(=O)n(C)c4c32)o1 (single isomer, unassigned) [Example 7.5b, 5-(3-fluorophenyl)-1,3,8-trimethyl-10-(5-methylfuran-2-yl)-7,8,9,10-tetrahydropyrimido[4,5-a]indolizine-2,4(1H,3H)-dione]",2.18
2,"Cc1ccc([C@H]2CCCn3c(-c4ccccc4)c4c(=O)n(C)c(=O)n(C)c4c32)o1 [Example 6.4, (S)-1,3-Dimethyl-10-(5-methylfuran-2-yl)-5-phenyl-7,8,9,10-tetrahydropyrimido[4,5-a]indolizine-2,4(1H,3H)-dione]",> 30
3,"Cc1csc(C2CCNn3c(-c4ccccc4)c4c(=O)n(C)c(=O)n(C)c4c32)n1 (racemic) [Example 10.0, 1,3-Dimethyl-10-(4-methylthiazol-2-yl)-5-phenyl-7,8,9,10-tetrahydropyrimido[4′,5′:3,4]pyrrolo[1,2-b]pyridazine-2,4(1H,3H)-dione]",2.15
4,"Cc1coc(-c2c3c(=O)n(C)c(=O)n(C)c3c3n2CCSC3c2ccc(Cl)o2)n1 (racemic) [Example 15.10, 10-(5-Chlorofuran-2-yl)-1,3-dimethyl-5-(4-methyloxazol-2-yl)-7,8-dihydro-1H-pyrimido[4′,5′:3,4]pyrrolo[2,1-c][1,4]thiazine-2,4(3H,10H)-dione]",1.18
5,"Cn1c(=O)c2c(-c3ccccc3)n3c(c2n(C)c1=O)C(c1cccc(Cl)c1)SCC3 (racemic) [Example 1.6, 10-(3-Chlorophenyl)-1,3-dimethyl-5-phenyl-7,8-dihydro-1H-pyrimido[4′,5′:3,4]pyrrolo[2,1-c][1,4]thiazine-2,4(3H,10H)-dione]",11.1
6,"CN(C)C[C@@H]1Cn2c(-c3ccccc3)c3c(=O)n(C)c(=O)n(C)c3c2[C@@H](c2ccc(Cl)o2)S1 (single isomer, unassigned) [Example 14a, 10-(5-chlorofuran-2-yl)-8-((dimethylamino)methyl)-1,3-dimethyl-5-phenyl-7,8-dihydro-1H-pyrimido[4′,5′:3,4]pyrrolo[2,1-c][1,4]thiazine-2,4(3H,10H)-dione]",0.31
7,"Cn1c(=O)c2c(-c3nc(CO)cs3)n3c(c2n(C)c1=O)[C@H](c1ccc(Cl)o1)SCC3 (single isomer, unassigned) [Example 15, 10-(5-Chlorofuran-2-yl)-5-(4-(hydroxymethyl)thiazol-2-yl)-1,3-dimethyl-7,8-dihydro-1H-pyrimido[4′,5′:3,4]pyrrolo[2,1-c][1,4]thiazine-2,4(3H,10H)-dione]",0.1
8,"Cn1cnc(-c2c3c(=O)n(C)c(=O)n(C)c3c3n2CCSC3c2ccc(Cl)o2)c1 (racemic) [Example 15.7, 10-(5-Chlorofuran-2-yl)-1,3-dimethyl-5-(1-methyl-1H-imidazol-4-yl)-7,8-dihydro-1H-pyrimido[4′,5′:3,4]pyrrolo[2,1-c][1,4]thiazine-2,4(3H,10H)-dione]",5.5
9,"Cn1c(=O)c2c(-c3ccccc3)n3c(c2n(C)c1=O)C(c1cccc(C#N)c1)CCC3 (racemic) [Example 9.2, 3-(1,3-Dimethyl-2,4-dioxo-5-phenyl-1,2,3,4,7,8,9,10-octahydropyrimido[4,5-a]indolizin-10-yl)benzonitrile]",9.3
10,"CCn1c(=O)c2c(-c3ccccc3)n3c(c2n(CC)c1=O)C(c1ccc(Cl)o1)SCC3 (single isomer, unassigned) [Example 4.2, 10-(5-Chlorofuran-2-yl)-1,3-diethyl-5-phenyl-7,8-dihydro-1H-pyrimido[4′,5′:3,4]pyrrolo[2,1-c][1,4]thiazine-2,4(3H,10H)-dione]",1.67
11,"COc1cccc(-c2c3c(=O)n(C)c(=O)n(C)c3c3n2CCSC3c2ccc(Cl)o2)c1 (single isomer, unassigned) [Example 15.13, 10-(5-Chlorofuran-2-yl)-5-(3-methoxyphenyl)-1,3-dimethyl-7,8-dihydro-1H-pyrimido[4′,5′:3,4]pyrrolo[2,1-c][1,4]thiazine-2,4(3H,10H)-dione]",0.62
12,"Cn1c(=O)c2c(-c3cccc(C#N)c3)n3c(c2n(C)c1=O)C(c1ccc(Cl)o1)SCC3 (single isomer, unassigned) [Example 3.5, 3-(10-(5-chlorofuran-2-yl)-1,3-dimethyl-2,4-dioxo-2,3,4,7,8,10-hexahydro-1H-pyrimido[4′,5′:3,4]pyrrolo[2,1-c][1,4]thiazin-5-yl)benzonitrile]",0.16
13,"Cc1ccc(C2CCn3c(-c4ccccc4)c4c(=O)n(C)c(=O)n(C)c4c32)o1 (racemic) [Example 11.0, 1,3-Dimethyl-9-(5-methylfuran-2-yl)-5-phenyl-8,9-dihydro-1H-pyrimido[4,5-a]pyrrolizine-2,4(3H,7H)-dione]",9.14
14,"Cc1nnc(-c2c3c(=O)n(C)c(=O)n(C)c3c3n2CCSC3c2ccc(Cl)o2)o1 (racemic) [Example 15.9, 10-(5-Chlorofuran-2-yl)-1,3-dimethyl-5-(5-methyl-1,3,4-oxadiazol-2-yl)-7,8-dihydro-1H-pyrimido[4′,5′:3,4]pyrrolo[2,1-c][1,4]thiazine-2,4(3H,10H)-dione]",1.9
15,"Cc1ccc([C@@H]2CCCn3c(-c4ccccc4)c4c(=O)n(C)c(=O)n(C)c4c32)o1 [Example 6.3, (R)-1,3-Dimethyl-10-(5-methylfuran-2-yl)-5-phenyl-7,8,9,10-tetrahydropyrimido[4,5-a]indolizine-2,4(1H,3H)-dione]",2.24
16,"Cn1cc(-c2c3c(=O)n(C)c(=O)n(C)c3c3n2CCSC3c2ccc(Cl)o2)cn1 (racemic) [Example 15.8, 10-(5-Chlorofuran-2-yl)-1,3-dimethyl-5-(1-methyl-1H-pyrazol-4-yl)-7,8-dihydro-1H-pyrimido[4′,5′:3,4]pyrrolo[2,1-c][1,4]thiazine-2,4(3H,10H)-dione]",3.93
17,"Cc1ccc(C2SCCn3c(-c4ccccc4)c4c(=O)n(C)c(=O)n(C)c4c32)o1 (single isomer, unassigned) [Example 1.3, 1,3-Dimethyl-10-(5-methylfuran-2-yl)-5-phenyl-7,8-dihydro-1H-pyrimido[4′,5′:3,4]pyrrolo[2,1-c][1,4]thiazine-2,4(3H,10H)-dione]",> 30
18,"Cn1c(=O)c2c(C3=CCCCC3)n3c(c2n(C)c1=O)C(c1ccc(Cl)o1)SCC3 (single isomer, unassigned) [Example 3.1.2, 10-(5-chlorofuran-2-yl)-5-(cyclohex-1-en-1-yl)-1,3-dimethyl-7,8-dihydro-1H-pyrimido[4′,5′:3,4]pyrrolo[2,1-c][1,4]thiazine-2,4(3H,10H)-dione]",1.51
19,"Cn1ccc(-c2c3c(=O)n(C)c(=O)n(C)c3c3n2CCSC3c2ccc(Cl)o2)n1 (single isomer, unassigned) [Example 15.11, 10-(5-Chlorofuran-2-yl)-1,3-dimethyl-5-(1-methyl-1H-pyrazol-3-yl)-7,8-dihydro-1H-pyrimido[4′,5′:3,4]pyrrolo[2,1-c][1,4]thiazine-2,4(3H,10H)-dione]",0.13
20,"Cc1csc(-c2c3c(=O)n(C)c(=O)n(C)c3c3n2C[C@@H](Cn2ccnc2)S[C@@H]3c2ccc(Cl)o2)n1 (single isomer, unassigned) [Example 28a, 8-((1H-imidazol-1-yl)methyl)-10-(5-chlorofuran-2-yl)-1,3-dimethyl-5-(4-methylthiazol-2-yl)-7,8-dihydro-1H-pyrimido[4′,5′:3,4]pyrrolo[2,1-c][1,4]thiazine-2,4(3H,10H)-dione]",0.11
